The source of these data is patent US20260108527A1, “POLO LIKE KINASE 4 INHIBITORS” (ORIC Pharmaceuticals, Inc., priority 2022, published 2026).

For assay [1], the target named is T1, human recombinant Aurora B (Homo sapiens, UniProt Q96GD4).
T1 construct: purchased ThermoFisher PR9210B
Description: Aurora B Kinase Biochemical Assay (ADP-Glo). Particulars: selectivity ratio; Aurora B 10 nM, 114 μM ATP. How it is done:
Activity of human recombinant Aurora B (ThermoFisher, cat #PR9210B) was measured by quantification of adenosine diphosphate (ADP) using the ADP-Glo Kinase Assay Kit (Promega, cat #V9102). Test compounds were solubilized in dimethyl sulfoxide (DMSO) and dispensed into 384-well white polystyrene nonbinding plates (Greiner, cat #781094) using the Echo acoustic dispenser (Labcyte Inc.) in a 11-point 3-fold titration in duplicates. 5 μL of 20 nM Aurora B in assay buffer (50 mM HEPES, pH 7.5, 0.01% Brij-35, 0.01% BSA, 10 mM MgCl2, 1 mM EGTA, 1 mM DTT) was added to the plates. Test compounds and Aurora B were incubated for 15 minutes at room temperature (RT). Then 5 μL of a 228 μM adenosine triphosphate (ATP) (Promega, cat #V915B) and 9.3 μM Myelin Basic Protein (MBP) (SignalChem, cat #M42-51N) substrate solution in assay buffer was added and the reaction mixture was incubated for 2 hours at RT. The final concentration of Aurora b, ATP and MBP in the reactions were 10 nM, 114 μM and 4.7 μM, respectively. Reactions were stopped and the remaining ATP depleted by adding 10 μL of ADP-Glo reagent (Promega, cat #V912B) and incubating for 40 minutes at RT. The simultaneous conversion of the remaining ADP to ATP and measurement of the newly synthesized ATP was achieved by addition of 20 μL Kinase Detection reagent (Promega, cat #V9141B), incubation for 30 min at RT, and luminescence detection using the EnVision plate reader (PerkinElmer). Reactions lacking Aurora B were used as […]. Reactions containing DMSO alone were used as […]. The IC50 values reported in Table 2 were determined using four parameter non-linear regression curve fit.
(ADP-Glo first removes unused ATP, then detects ADP through luciferase.)

Assay [2] concerns the target T2, human recombinant PLK4 (Homo sapiens, UniProt O00444).
T2 construct: purchased ThermoFisher PV6396
T2 sequence (O00444 1-970): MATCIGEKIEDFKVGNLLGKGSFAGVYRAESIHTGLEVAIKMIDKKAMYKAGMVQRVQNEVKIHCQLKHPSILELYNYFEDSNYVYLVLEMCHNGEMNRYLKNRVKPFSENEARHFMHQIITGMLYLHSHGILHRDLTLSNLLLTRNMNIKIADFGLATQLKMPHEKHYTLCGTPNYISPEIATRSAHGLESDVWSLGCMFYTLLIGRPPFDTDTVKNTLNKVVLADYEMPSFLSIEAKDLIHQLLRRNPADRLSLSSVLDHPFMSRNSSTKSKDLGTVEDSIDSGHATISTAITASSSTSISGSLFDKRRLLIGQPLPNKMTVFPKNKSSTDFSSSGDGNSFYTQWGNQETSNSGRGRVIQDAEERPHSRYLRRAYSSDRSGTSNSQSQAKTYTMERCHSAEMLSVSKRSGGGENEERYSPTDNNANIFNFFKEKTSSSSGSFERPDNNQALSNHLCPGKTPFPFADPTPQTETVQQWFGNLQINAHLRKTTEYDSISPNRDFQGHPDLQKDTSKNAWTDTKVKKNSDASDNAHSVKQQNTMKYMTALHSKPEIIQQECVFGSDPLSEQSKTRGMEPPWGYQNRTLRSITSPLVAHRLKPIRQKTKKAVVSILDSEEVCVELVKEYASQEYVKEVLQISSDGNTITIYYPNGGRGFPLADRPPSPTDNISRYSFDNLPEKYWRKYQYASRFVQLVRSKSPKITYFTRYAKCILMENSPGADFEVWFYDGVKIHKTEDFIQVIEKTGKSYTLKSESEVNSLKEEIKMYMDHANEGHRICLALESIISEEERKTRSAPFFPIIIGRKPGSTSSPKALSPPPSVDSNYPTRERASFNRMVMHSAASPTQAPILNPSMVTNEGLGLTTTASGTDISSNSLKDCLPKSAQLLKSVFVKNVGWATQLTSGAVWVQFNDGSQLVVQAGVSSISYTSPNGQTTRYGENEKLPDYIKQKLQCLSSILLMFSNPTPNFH
Description: PLK4 Biochemical Assay (ADP-Glo). Particulars: 0.5 nM PLK4, 8.0 μM ATP, 4.7 μM MBP, 6 hours at RT. How it is done:
Activity of human recombinant PLK4 (ThermoFisher, cat #PV6396) was measured by quantification of adenosine diphosphate (ADP) using the ADP-Glo Kinase Assay Kit (Promega, cat #V9102). […] 5 μL of 1.0 nM PLK4 protein in assay buffer (50 mM HEPES, pH 7.5, 0.01% Brij-35, 0.01% BSA, 10 mM MgCl2, 1 mM EGTA, 1 mM DTT) was added to the plates. Test compounds and PLK4 were incubated for 15 minutes at room temperature (RT). […] Reactions were stopped and the remaining ATP depleted by adding 10 μL of ADP-Glo reagent (Promega, cat #V912B) and incubating for 40 minutes at RT. The simultaneous conversion of the remaining ADP to ATP and measurement of the newly synthesized ATP was achieved by addition of 20 μL Kinase Detection reagent (Promega, cat #V914B), incubation for 30 min at RT, and luminescence detection using the EnVision plate reader (PerkinElmer). […] The IC50 values reported in Table 2 were determined using four parameter non-linear regression curve fit.

T1 sequence (Q96GD4 whole entry): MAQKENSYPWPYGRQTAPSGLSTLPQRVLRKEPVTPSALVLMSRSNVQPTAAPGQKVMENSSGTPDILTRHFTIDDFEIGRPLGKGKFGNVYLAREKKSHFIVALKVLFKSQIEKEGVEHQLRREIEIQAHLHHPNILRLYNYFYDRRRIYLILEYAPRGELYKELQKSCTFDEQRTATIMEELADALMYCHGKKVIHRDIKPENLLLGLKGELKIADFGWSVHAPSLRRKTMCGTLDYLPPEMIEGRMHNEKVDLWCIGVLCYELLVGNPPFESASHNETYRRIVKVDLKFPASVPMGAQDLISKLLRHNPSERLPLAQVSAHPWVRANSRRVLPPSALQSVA

By IC50 is commonly meant the concentration needed to halve the response being measured. As for `COc1ccc2c(c1)[C@]1(C[C@H]1c1ccc3c(Nc4ccc(-c5nnn(C)n5)cc4OC)n[nH]c3c1)C(=O)N2` [Example 17, (1R,2S)-5′-methoxy-2-{3-[2-methoxy-4-(2-methyl-2H-tetrazol-5-yl)anilino]-1H-indazol-6-yl}spiro[cyclopropane-1,3′-indol]-2′(1′H)-one], the “[Aurora B IC50 (nM)]/[PLK4 IC50 (nM)]” value in assay [1] was determined as 190. Moreover, the IC50 in assay [2] was 2000 pM.
For `COc1ccc2c(c1)[C@]1(C[C@H]1c1ccc3c(Nc4cc(-c5cnco5)ccc4OC)n[nH]c3c1)C(=O)N2` [Example 18, (1R,2S)-5′-methoxy-2-{3-[2-methoxy-5-(1,3-oxazol-5-yl)anilino]-1H-indazol-6-yl}spiro[cyclopropane-1,3′-indol]-2′(1′H)-one], the “[Aurora B IC50 (nM)]/[PLK4 IC50 (nM)]” value in assay [1] is given as 520. In addition, in assay [2], the IC50 was 710 pM.
Turning to `COc1ccc2c(c1)[C@]1(C[C@H]1c1ccc3c(Nc4nc(-c5ncco5)cnc4OC)n[nH]c3c1)C(=O)N2` [Example 19, (1R,2S)-5′-methoxy-2-(3-{[3-methoxy-6-(1,3-oxazol-2-yl)pyrazin-2-yl]amino}-1H-indazol-6-yl)spiro[cyclopropane-1,3′-indol]-2′(1′H)-one], the “[Aurora B IC50 (nM)]/[PLK4 IC50 (nM)]” value in assay [1] came to 460. Besides, the half-maximal inhibitory concentration (IC50) in assay [2] was determined as 990 pM.
As for `COc1ccc2c(c1)[C@]1(C[C@H]1c1ccc3c(Nc4nc(N(C)C)ncc4OC)n[nH]c3c1)C(=O)N2` [Example 20, (1R,2S)-2-(3-{[2-(dimethylamino)-5-methoxypyrimidin-4-yl]amino}-1H-indazol-6-yl)-5′-methoxyspiro[cyclopropane-1,3′-indol]-2′(1′H)-one], the “[Aurora B IC50 (nM)]/[PLK4 IC50 (nM)]” value in assay [1] is given as 120. Moreover, in assay [2], the concentration for half-maximal inhibition (IC50) was 2800 pM.
The corresponding values for `COc1ccc2c(c1)[C@]1(C[C@H]1c1ccc3c(Nc4cc(-c5nnn(C)n5)ccc4OC)n[nH]c3c1)C(=O)N2` [Example 21, (1R,2S)-5′-methoxy-2-{3-[2-methoxy-5-(2-methyl-2H-tetrazol-5-yl)anilino]-1H-indazol-6-yl}spiro[cyclopropane-1,3′-indol]-2′(1′H)-one] are 990 and 2600 pM.
For `CCOc1cc(S(C)(=O)=O)ccc1Nc1n[nH]c2cc([C@@H]3C[C@@]34C(=O)N(C)c3ccc(OC)cc34)ccc12` [Example 23, (1R,2S)-2-{3-[2-ethoxy-4-(methanesulfonyl)anilino]-1H-indazol-6-yl}-5′-methoxy-1′-methylspiro[cyclopropane-1,3′-indol]-2′(1′H)-one], in that order: 1017 and 1400 pM.
The corresponding values for `COc1ccc2c(c1)[C@]1(C[C@H]1c1ccc3c(Nc4nc(-c5cnn(C)c5)cnc4OC)n[nH]c3c1)C(=O)N2` [Example 24, (1R,2S)-5′-methoxy-2-(3-{[3-methoxy-6-(1-methyl-1H-pyrazol-4-yl)pyrazin-2-yl]amino}-1H-indazol-6-yl)spiro[cyclopropane-1,3′-indol]-2′(1′H)-one] are 263.2352 and 408 pM.
For the compound `COc1ccc2c(c1)[C@]1(C[C@H]1c1ccc3c(Nc4cc(-c5cnn(C)c5)cnc4OC)n[nH]c3c1)C(=O)N2` [Example 26, (1R,2S)-5′-methoxy-2-(3-{[2-methoxy-5-(1-methyl-1H-pyrazol-4-yl)pyridin-3-yl]amino}-1H-indazol-6-yl)spiro[cyclopropane-1,3′-indol]-2′(1′H)-one], the “[Aurora B IC50 (nM)]/[PLK4 IC50 (nM)]” value in assay [1] is on record as 921.6946. Further, in assay [2], the IC50 was determined as 840 pM.
As for `COc1ccc2c(c1)[C@]1(C[C@H]1c1ccc3c(Nc4cc(-c5cnn(C)c5)ncc4OC)n[nH]c3c1)C(=O)N2` [Example 27, (1R,2S)-5′-methoxy-2-(3-{[5-methoxy-2-(1-methyl-1H-pyrazol-4-yl)pyridin-4-yl]amino}-1H-indazol-6-yl)spiro[cyclopropane-1,3′-indol]-2′(1′H)-one], the “[Aurora B IC50 (nM)]/[PLK4 IC50 (nM)]” value in assay [1] amounted to 954.5884. Further, the IC50 in assay [2] came to 1060 pM.
The corresponding values for `CCOc1ccc(-c2nccs2)nc1Nc1n[nH]c2cc([C@@H]3C[C@@]34C(=O)Nc3ccc(OC)cc34)ccc12` [Example 28, (1R,2S)-2-(3-{[3-ethoxy-6-(1,3-thiazol-2-yl)pyridin-2-yl]amino}-1H-indazol-6-yl)-5′-methoxyspiro[cyclopropane-1,3′-indol]-2′(1′H)-one] are 1526.5629 and 341 pM.
On to `CCOc1cc(-c2cn(C)cn2)ccc1Nc1n[nH]c2cc([C@@H]3C[C@@]34C(=O)Nc3ccc(OC)cc34)ccc12` [Example 29, (1R,2S)-2-{3-[2-ethoxy-4-(1-methyl-1H-imidazol-4-yl)anilino]-1H-indazol-6-yl}-5′-methoxyspiro[cyclopropane-1,3′-indol]-2′(1′H)-one], for which the “[Aurora B IC50 (nM)]/[PLK4 IC50 (nM)]” value in assay [1] is listed as 211.2020. For the same compound, the IC50 in assay [2] was found to be 1950 pM.
For `COc1ccc2c(c1)[C@]1(C[C@H]1c1ccc3c(Nc4cc(-c5ccsn5)ccc4OC)n[nH]c3c1)C(=O)N2` [Example 30, (1R,2S)-5′-methoxy-2-{3-[2-methoxy-5-(1,2-thiazol-3-yl)anilino]-1H-indazol-6-yl}spiro[cyclopropane-1,3′-indol]-2′(1′H)-one], in that order: 1970.3298 and 694 pM.
As for `COc1ccc2c(c1)[C@]1(C[C@H]1c1ccc3c(Nc4nc(-c5cnn(C)c5)ncc4OC)n[nH]c3c1)C(=O)N2` [Example 31, (1R,2S)-5′-methoxy-2-(3-{[5-methoxy-2-(1-methyl-1H-pyrazol-4-yl)pyrimidin-4-yl]amino}-1H-indazol-6-yl)spiro[cyclopropane-1,3′-indol]-2′(1′H)-one], the “[Aurora B IC50 (nM)]/[PLK4 IC50 (nM)]” value in assay [1] was 429.3981. For the same compound, the IC50 in assay [2] was determined as 259 pM.
In the case of `COc1ccc2c(c1)[C@]1(C[C@H]1c1ccc3c(Nc4cc(-c5ccon5)ccc4OC)n[nH]c3c1)C(=O)N2` [Example 32, (1R,2S)-5′-methoxy-2-{3-[2-methoxy-5-(1,2-oxazol-3-yl)anilino]-1H-indazol-6-yl}spiro[cyclopropane-1,3′-indol]-2′(1′H)-one], the “[Aurora B IC50 (nM)]/[PLK4 IC50 (nM)]” value in assay [1] is reported as 1218.8633. Moreover, the half-inhibitory concentration (IC50) in assay [2] turned out to be 827 pM.
Consider `CCOc1ccc(-c2nccs2)cc1Nc1n[nH]c2cc([C@@H]3C[C@@]34C(=O)Nc3ccc(OC)cc34)ccc12` [Example 33, (1R,2S)-2-{3-[2-ethoxy-5-(1,3-thiazol-2-yl)anilino]-1H-indazol-6-yl}-5′-methoxyspiro[cyclopropane-1,3′-indol]-2′(1′H)-one], for which the “[Aurora B IC50 (nM)]/[PLK4 IC50 (nM)]” value in assay [1] was found to be 45644.0903. In addition, in assay [2], the IC50 is 753 pM.
